System: Plasmodium berghei
Assay: Luciferase/luciferin-expressing antifolate-resistant parasites were used to infect a culture of HepG2 cells that were pre-incubated with compounds. Infected hepatocytes emit light due to the luciferase reaction. Assay results are presented as the percent inhibition of light emission compared to control. […]
Type: functional
Details: sporozoite; for IC90: read-out: LUCIFERASE INFECTION ASSAY - IC90
[1] = PBLUC_HILL_SLOPE 2.91, PBLUC_R_SQUARED 0.109, read-out: LUCIFERASE INFECTION ASSAY - IC50

Compound | IC90 | further results
CCCCNC(=O)C1(C)CCCCN1C(=O)c1ccc2c(c1)C(C)(C)CCC2(C)C (configuration not stated) | > 8 µM | IC50 (PBLUC_HILL_SLOPE 3, PBLUC_R_SQUARED 0.424, read-out: LUCIFERASE INFECTION ASSAY - IC50): 7.41 µM
NCCCNc1ccnc2cc(Cl)ccc12 | > 14 µM | IC50 (PBLUC_HILL_SLOPE 2.91, PBLUC_R_SQUARED 0.438, read-out: LUCIFERASE INFECTION ASSAY - IC50): 8.74 µM
CCc1c(C)[nH]c2c(-c3ccc(Cl)cc3)c(C)nn2c1=O | > 10.9 µM | IC50 (PBLUC_HILL_SLOPE 2.9, PBLUC_R_SQUARED 0.859, read-out: LUCIFERASE INFECTION ASSAY - IC50): 6.48 µM
Cc1cc(C(=O)NC2CC2)c(C)n1-c1ccc(C(C)C)cc1 | > 10 µM | IC50 (PBLUC_HILL_SLOPE 2.98, PBLUC_R_SQUARED 0.567, read-out: LUCIFERASE INFECTION ASSAY - IC50): 6.28 µM
CSc1[nH]nc(-c2cc(C(C)(C)C)oc2C)c1C#N | > 12 µM | IC50 (PBLUC_HILL_SLOPE 2.91, PBLUC_R_SQUARED 0.01, read-out: LUCIFERASE INFECTION ASSAY - IC50): 8.62 µM
Cc1c(-c2ccccc2)sc2ncnc(NCC(=O)N3CCCC3)c12 | > 10 µM | IC50 (PBLUC_HILL_SLOPE 2.95, PBLUC_R_SQUARED 0.129, read-out: LUCIFERASE INFECTION ASSAY - IC50): 5.82 µM
CC(C)(C)Nc1ccn2nc(-c3ccco3)cc2n1 | > 12.9 µM | IC50 (PBLUC_HILL_SLOPE 2.89, PBLUC_R_SQUARED 0.538, read-out: LUCIFERASE INFECTION ASSAY - IC50): 8.49 µM
O=C(NCCc1ccccn1)c1ccc(Cl)c(S(=O)(=O)N(Cc2ccccc2)c2cccc(C(F)(F)F)c2)c1 | 3.59 µM | IC50 (PBLUC_HILL_SLOPE 3, PBLUC_R_SQUARED 0.619, read-out: LUCIFERASE INFECTION ASSAY - IC50): 1.73 µM
Cc1cc(=O)nc(N/N=C/c2cc(C)n(-c3ccccc3Cl)c2C)[nH]1 | > 10 µM | IC50 (PBLUC_HILL_SLOPE 2.91, PBLUC_R_SQUARED 0.512, read-out: LUCIFERASE INFECTION ASSAY - IC50): 9.21 µM
O=C(NCc1ccccc1)C(=Cc1ccc(-c2ccccc2)cc1)C(=O)NCc1ccccc1 | 9.48 µM | IC50 (PBLUC_HILL_SLOPE 2.95, PBLUC_R_SQUARED 0.782, read-out: LUCIFERASE INFECTION ASSAY - IC50): 4.51 µM
Cc1ccc(-c2nn(-c3ccccc3)cc2CN(C)C(=O)CCNC(=O)c2ccco2)cc1C | > 10 µM | IC50 (PBLUC_HILL_SLOPE 3, PBLUC_R_SQUARED 0.508, read-out: LUCIFERASE INFECTION ASSAY - IC50): 5.91 µM
COc1ccccc1C(=O)Nc1c(C#N)cnn1-c1nc(C)cc(C)n1 | 7.94 µM | IC50 (PBLUC_HILL_SLOPE 2.98, PBLUC_R_SQUARED 0.592, read-out: LUCIFERASE INFECTION ASSAY - IC50): 3.8 µM
CCOc1ccc(-n2c(C)cc(/C=C(\C#N)c3ccccn3)c2C)cc1 | > 10 µM | IC50 (PBLUC_HILL_SLOPE 2.96, PBLUC_R_SQUARED 0.363, read-out: LUCIFERASE INFECTION ASSAY - IC50): 8.53 µM
Cc1nc2ccc(I)cn2c1/C=N/Nc1ccccn1 | > 10 µM | IC50 (PBLUC_HILL_SLOPE 2.99, PBLUC_R_SQUARED 0.247, read-out: LUCIFERASE INFECTION ASSAY - IC50): 6.77 µM
Cc1ccc(-n2ncc(C(=O)OCc3nc(N)nc(N(C)C)n3)c2C(C)C)cc1 | > 10 µM | IC50 (PBLUC_HILL_SLOPE 2.99, PBLUC_R_SQUARED 0.678, read-out: LUCIFERASE INFECTION ASSAY - IC50): 6.36 µM
COc1cc2c(cc1OC)C(c1ccccc1Cl)N(C(=O)c1sc3ccccc3c1Cl)CC2 (configuration not stated) | > 6.62 µM | IC50 (PBLUC_HILL_SLOPE 2.93, PBLUC_R_SQUARED 0.186, read-out: LUCIFERASE INFECTION ASSAY - IC50): 4.9 µM
CC(C)(C)c1ccc(/C=C2\CCc3c2nc2ccccc2c3C(=O)OCC(=O)NNC(=O)c2ccccc2F)cc1 | 5.46 µM | IC50 (PBLUC_HILL_SLOPE 2.93, PBLUC_R_SQUARED 0.289, read-out: LUCIFERASE INFECTION ASSAY - IC50): 2.58 µM
CN(C(=O)CN1C(=O)NC(c2ccccc2)(c2ccccc2)C1=O)C1CCCc2ccccc21 (configuration not stated) | > 10 µM | IC50 (PBLUC_HILL_SLOPE 2.94, PBLUC_R_SQUARED 0.848, read-out: LUCIFERASE INFECTION ASSAY - IC50): 5.62 µM
O=C(NC1CCCC1)c1ccc(-c2cn3c(-c4ccc(C(=O)NC5CC5)cc4)cnc3cn2)cc1 | > 7.09 µM | IC50 (PBLUC_HILL_SLOPE 2.95, PBLUC_R_SQUARED 0.52, read-out: LUCIFERASE INFECTION ASSAY - IC50): 4.87 µM
N=C(Cc1cccs1)NOC(=O)Nc1cc(Cl)cc(Cl)c1 | > 9.59 µM | IC50 (PBLUC_HILL_SLOPE 2.97, PBLUC_R_SQUARED 0.445, read-out: LUCIFERASE INFECTION ASSAY - IC50): 6.76 µM
COc1cc(OC)c(C(=O)NC(C)C23CC4CC(CC(C4)C2)C3)cc1OC (configuration not stated) | 9.64 µM | IC50 (PBLUC_HILL_SLOPE 2.98, PBLUC_R_SQUARED 0.335, read-out: LUCIFERASE INFECTION ASSAY - IC50): 4.61 µM

Compound | IC90 | further results
COc1ccc(-c2nc3ccnc(NCc4ccc(Cl)cc4)c3[nH]2)cc1 | 4.74 µM | IC50 (PBLUC_HILL_SLOPE 2.99, PBLUC_R_SQUARED 0.272, read-out: LUCIFERASE INFECTION ASSAY - IC50): 2.27 µM
CCOC(=O)C1CCCN(Cn2nc(-c3ccc(Br)cc3)n(C3CCCCC3)c2=S)C1 (configuration not stated) | > 10 µM | IC50 [1]: 5.86 µM
O=C(CN1C(=O)C(=O)N(CCc2cccs2)C1=O)NC(=O)Nc1ccccc1F | > 10 µM | IC50 (PBLUC_HILL_SLOPE 3, PBLUC_R_SQUARED 0.385, read-out: LUCIFERASE INFECTION ASSAY - IC50): > 10 µM
CNc1nc2cnc(Nc3cc(C(F)(F)F)ccc3F)cc2n1-c1ccccc1 | > 10 µM | IC50 (PBLUC_HILL_SLOPE 2.9, PBLUC_R_SQUARED 0.508, read-out: LUCIFERASE INFECTION ASSAY - IC50): 6.14 µM
Cc1nc2ccccc2n1CCC(=O)Nc1ccc2ccccc2c1 | > 10 µM | IC50 (PBLUC_HILL_SLOPE 2.97, PBLUC_R_SQUARED 0.444, read-out: LUCIFERASE INFECTION ASSAY - IC50): 7.73 µM
CCCc1cc(NCCN(C)C)n2ncc(-c3ccccc3)c2n1 | > 10.2 µM | IC50 (PBLUC_HILL_SLOPE 2.98, PBLUC_R_SQUARED 0.437, read-out: LUCIFERASE INFECTION ASSAY - IC50): 4.93 µM
CN(C)c1ccc(S(N)(=O)=O)cc1NC(=O)Cc1ccc(-c2ccccc2)cc1 | > 10 µM | IC50 (PBLUC_HILL_SLOPE 2.92, PBLUC_R_SQUARED 0.577, read-out: LUCIFERASE INFECTION ASSAY - IC50): 5.33 µM
COCCCn1c(-c2ccc(C(C)(C)C)cc2)n[nH]c1=S | > 10.8 µM | IC50 (PBLUC_HILL_SLOPE 2.97, PBLUC_R_SQUARED 0.207, read-out: LUCIFERASE INFECTION ASSAY - IC50): 6.76 µM
c1ccn2c(Sc3ncnc4sc5c(c34)CCC5)nnc2c1 | > 10 µM | IC50 (PBLUC_HILL_SLOPE 2.99, PBLUC_R_SQUARED 0.206, read-out: LUCIFERASE INFECTION ASSAY - IC50): 4.93 µM
CCCc1cc(C(=O)Nc2ccc(OC(F)F)cc2)sc1C | > 10 µM | IC50 (PBLUC_HILL_SLOPE 2.93, PBLUC_R_SQUARED 0.424, read-out: LUCIFERASE INFECTION ASSAY - IC50): 8.81 µM
c1ccc(-c2nc3sccn3c2CSc2nnnn2C2CCCC2)cc1 | > 10 µM | IC50 (PBLUC_HILL_SLOPE 2.99, PBLUC_R_SQUARED 0.0258, read-out: LUCIFERASE INFECTION ASSAY - IC50): 8.01 µM
CCN(CC)S(=O)(=O)c1ccc(N2CCOCC2)c(NC(=O)c2cc(-c3cc(OC)c(OC)c(OC)c3)nc3ccccc23)c1 | 8.54 µM | IC50 (PBLUC_HILL_SLOPE 2.9, PBLUC_R_SQUARED 0.79, read-out: LUCIFERASE INFECTION ASSAY - IC50): 4.01 µM
O=C(Nc1cccc(CNc2ccnc3cc(Cl)ccc23)c1)C1CC1 | > 10 µM | IC50 (PBLUC_HILL_SLOPE 2.98, PBLUC_R_SQUARED 0.123, read-out: LUCIFERASE INFECTION ASSAY - IC50): 5.8 µM
CN(C)c1cccc(-c2cnc3cnc(-c4ccc(C(=O)NC5CC5)cc4)cn23)c1 | > 8.3 µM | IC50 (PBLUC_HILL_SLOPE 2.95, PBLUC_R_SQUARED 0.0505, read-out: LUCIFERASE INFECTION ASSAY - IC50): 7.62 µM
O=S(=O)(c1ccccc1)c1nc(/C=C/c2ccccc2)oc1NCc1ccco1 | > 10 µM | IC50 (PBLUC_HILL_SLOPE 2.89, PBLUC_R_SQUARED 0.0298, read-out: LUCIFERASE INFECTION ASSAY - IC50): 5.62 µM
COc1ccc(CCN(C)c2ccc(S(=O)(=O)N(C(C)C)C(C)C)cn2)cc1OC | > 10 µM | IC50 [1]: 5.86 µM
Cc1cccc(C)c1NC(=O)Nc1cccn(Cc2ccc(Cl)cc2)c1=O | > 8.64 µM | IC50 (PBLUC_HILL_SLOPE 2.91, PBLUC_R_SQUARED 0.157, read-out: LUCIFERASE INFECTION ASSAY - IC50): 7.92 µM
N#Cc1cc(-c2nc(-c3ccccc3)cs2)c(N)[nH]c1=S | > 10 µM | IC50 (PBLUC_HILL_SLOPE 3, PBLUC_R_SQUARED 0.293, read-out: LUCIFERASE INFECTION ASSAY - IC50): 6.32 µM
CN(Cc1c(F)cccc1Cl)C(=O)COc1ccc2[nH]c3ccccc3c(=O)c2c1 | 1.11 µM | IC50 (PBLUC_HILL_SLOPE 2.98, PBLUC_R_SQUARED 0.795, read-out: LUCIFERASE INFECTION ASSAY - IC50): 0.53 µM
O=C(NNc1cccc(F)n1)C(F)(F)F | 0.37 µM | IC50 (PBLUC_HILL_SLOPE 2.9, PBLUC_R_SQUARED 0.705, read-out: LUCIFERASE INFECTION ASSAY - IC50): 0.174 µM

— ChEMBL document CHEMBL4483862, “Open-source discovery of chemical leads for next-generation chemoprotective antimalarials” (2018)
